Calls of active or inactive are those of the source.
How the values were obtained:
[1] = molecular target: Putative heat shock protein HSP 90-beta 2 (Homo sapiens, UniProt Q58FF8)
[2] = molecular target: T1, Glycogen phosphorylase, brain form (Homo sapiens, UniProt P11216)
T1 sequence (P11216 whole entry): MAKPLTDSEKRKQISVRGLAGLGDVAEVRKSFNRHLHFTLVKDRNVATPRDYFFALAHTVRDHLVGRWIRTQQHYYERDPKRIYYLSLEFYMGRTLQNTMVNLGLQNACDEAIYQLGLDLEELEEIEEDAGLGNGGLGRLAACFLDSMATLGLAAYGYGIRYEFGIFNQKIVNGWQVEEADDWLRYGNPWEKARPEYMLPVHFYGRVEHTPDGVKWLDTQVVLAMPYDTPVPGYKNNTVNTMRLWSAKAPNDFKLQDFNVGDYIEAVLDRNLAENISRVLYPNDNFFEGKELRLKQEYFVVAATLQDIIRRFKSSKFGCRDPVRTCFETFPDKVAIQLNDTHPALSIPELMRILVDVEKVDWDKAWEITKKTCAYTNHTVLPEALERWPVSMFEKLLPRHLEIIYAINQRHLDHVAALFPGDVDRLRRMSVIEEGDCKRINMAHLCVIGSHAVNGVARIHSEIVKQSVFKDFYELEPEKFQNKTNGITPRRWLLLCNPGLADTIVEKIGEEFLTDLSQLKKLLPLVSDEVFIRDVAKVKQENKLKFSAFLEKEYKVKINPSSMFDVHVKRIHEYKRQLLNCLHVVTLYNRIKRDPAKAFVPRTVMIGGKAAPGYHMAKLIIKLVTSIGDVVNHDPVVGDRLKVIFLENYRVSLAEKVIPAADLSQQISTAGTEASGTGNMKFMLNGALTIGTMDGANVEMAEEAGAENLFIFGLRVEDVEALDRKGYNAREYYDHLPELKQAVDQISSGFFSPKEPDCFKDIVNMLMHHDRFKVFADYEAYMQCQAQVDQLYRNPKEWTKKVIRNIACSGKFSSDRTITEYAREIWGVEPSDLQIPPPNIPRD

[3] = molecular target: T2, cGMP-dependent protein kinase 1 (Homo sapiens, UniProt Q13976)
T2 sequence (Q13976 whole entry): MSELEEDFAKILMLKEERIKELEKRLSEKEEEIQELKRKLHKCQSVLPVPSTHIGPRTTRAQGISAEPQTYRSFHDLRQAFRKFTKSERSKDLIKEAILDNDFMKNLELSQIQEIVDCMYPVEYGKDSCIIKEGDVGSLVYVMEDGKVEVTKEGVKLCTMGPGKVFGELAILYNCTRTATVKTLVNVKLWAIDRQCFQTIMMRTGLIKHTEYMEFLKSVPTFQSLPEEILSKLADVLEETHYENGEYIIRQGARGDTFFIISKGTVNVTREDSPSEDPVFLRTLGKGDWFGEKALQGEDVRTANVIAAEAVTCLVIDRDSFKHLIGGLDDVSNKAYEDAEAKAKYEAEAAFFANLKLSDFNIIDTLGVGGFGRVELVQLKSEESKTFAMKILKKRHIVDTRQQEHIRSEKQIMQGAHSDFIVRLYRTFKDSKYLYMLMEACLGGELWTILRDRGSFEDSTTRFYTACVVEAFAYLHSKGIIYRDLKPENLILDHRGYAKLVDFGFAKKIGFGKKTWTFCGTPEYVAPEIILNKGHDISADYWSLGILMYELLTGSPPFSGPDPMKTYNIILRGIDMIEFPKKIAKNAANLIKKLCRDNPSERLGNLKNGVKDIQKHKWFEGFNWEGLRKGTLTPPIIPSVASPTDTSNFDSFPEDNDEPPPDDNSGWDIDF

[4] = molecular target: Ribosomal protein S6 kinase beta-1 (Homo sapiens, UniProt P23443)
[5] = molecular target: Epithelial discoidin domain-containing receptor 1 (Homo sapiens, UniProt Q08345)
[6] = molecular target: T3, Serine/threonine-protein kinase ULK1 (Homo sapiens, UniProt O75385)
T3 sequence (O75385 whole entry): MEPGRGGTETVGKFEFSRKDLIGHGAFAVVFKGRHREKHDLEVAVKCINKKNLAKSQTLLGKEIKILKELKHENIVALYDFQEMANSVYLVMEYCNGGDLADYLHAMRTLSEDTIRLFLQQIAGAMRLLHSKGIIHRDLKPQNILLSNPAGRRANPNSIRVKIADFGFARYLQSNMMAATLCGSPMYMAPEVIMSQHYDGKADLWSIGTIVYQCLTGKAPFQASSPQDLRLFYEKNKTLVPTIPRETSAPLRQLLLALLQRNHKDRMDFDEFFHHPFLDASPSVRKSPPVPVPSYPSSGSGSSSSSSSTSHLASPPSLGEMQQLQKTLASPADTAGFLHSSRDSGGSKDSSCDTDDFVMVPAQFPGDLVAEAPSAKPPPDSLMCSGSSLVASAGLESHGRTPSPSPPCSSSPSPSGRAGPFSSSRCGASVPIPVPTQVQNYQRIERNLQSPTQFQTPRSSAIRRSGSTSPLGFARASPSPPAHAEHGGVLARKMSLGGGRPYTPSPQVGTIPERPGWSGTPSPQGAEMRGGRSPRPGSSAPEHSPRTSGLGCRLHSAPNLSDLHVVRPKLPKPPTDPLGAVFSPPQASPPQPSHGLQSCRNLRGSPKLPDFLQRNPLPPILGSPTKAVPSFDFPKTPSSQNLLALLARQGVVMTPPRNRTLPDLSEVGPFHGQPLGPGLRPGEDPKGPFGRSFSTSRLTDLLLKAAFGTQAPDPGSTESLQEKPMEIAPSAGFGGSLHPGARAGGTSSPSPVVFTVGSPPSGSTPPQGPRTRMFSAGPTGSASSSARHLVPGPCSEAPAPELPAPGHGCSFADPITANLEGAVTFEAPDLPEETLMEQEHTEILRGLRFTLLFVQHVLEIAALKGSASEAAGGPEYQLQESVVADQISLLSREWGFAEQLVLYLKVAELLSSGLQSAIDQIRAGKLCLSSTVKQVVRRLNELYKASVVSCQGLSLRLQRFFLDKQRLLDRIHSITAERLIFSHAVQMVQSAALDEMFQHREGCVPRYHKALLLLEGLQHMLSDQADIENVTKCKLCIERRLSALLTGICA
Note: in the data inactive means no Kd found up to 30 µM.

Chain of Epithelial discoidin domain-containing receptor 1 (Q08345 whole entry, the tested form may be a part): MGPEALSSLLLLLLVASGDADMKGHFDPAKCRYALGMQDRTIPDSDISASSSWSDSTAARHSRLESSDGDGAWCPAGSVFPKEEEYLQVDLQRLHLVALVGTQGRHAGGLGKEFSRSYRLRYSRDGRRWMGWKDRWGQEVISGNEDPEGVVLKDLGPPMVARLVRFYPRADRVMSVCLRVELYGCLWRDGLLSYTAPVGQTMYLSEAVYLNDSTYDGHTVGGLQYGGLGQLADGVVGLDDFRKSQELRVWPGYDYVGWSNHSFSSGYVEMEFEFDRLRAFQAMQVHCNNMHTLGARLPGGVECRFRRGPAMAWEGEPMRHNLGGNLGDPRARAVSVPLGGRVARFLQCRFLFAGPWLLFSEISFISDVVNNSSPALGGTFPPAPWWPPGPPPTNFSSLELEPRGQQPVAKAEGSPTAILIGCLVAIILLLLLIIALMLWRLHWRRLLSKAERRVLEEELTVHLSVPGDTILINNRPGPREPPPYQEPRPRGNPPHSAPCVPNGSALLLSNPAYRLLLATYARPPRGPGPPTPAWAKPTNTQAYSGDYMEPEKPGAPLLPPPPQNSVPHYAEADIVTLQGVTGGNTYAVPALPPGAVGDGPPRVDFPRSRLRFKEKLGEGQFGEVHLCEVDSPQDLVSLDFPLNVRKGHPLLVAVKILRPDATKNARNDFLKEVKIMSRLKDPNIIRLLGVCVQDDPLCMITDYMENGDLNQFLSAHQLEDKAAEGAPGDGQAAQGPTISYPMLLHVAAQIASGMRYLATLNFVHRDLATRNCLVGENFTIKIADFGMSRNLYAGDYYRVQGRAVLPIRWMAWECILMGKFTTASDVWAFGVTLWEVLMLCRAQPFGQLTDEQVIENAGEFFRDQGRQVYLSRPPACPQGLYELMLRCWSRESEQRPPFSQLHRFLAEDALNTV
Chain of Putative heat shock protein HSP 90-beta 2 (Q58FF8 whole entry): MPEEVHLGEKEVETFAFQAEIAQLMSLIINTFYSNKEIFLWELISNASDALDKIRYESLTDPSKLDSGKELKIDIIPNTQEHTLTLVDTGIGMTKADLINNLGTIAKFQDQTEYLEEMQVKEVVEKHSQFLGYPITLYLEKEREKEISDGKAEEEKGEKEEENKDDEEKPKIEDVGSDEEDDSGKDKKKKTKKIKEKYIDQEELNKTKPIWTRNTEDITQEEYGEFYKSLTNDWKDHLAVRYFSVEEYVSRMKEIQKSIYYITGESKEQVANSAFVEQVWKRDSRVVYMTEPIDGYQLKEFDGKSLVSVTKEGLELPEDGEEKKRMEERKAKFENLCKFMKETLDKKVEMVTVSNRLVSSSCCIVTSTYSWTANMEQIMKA
Chain of Ribosomal protein S6 kinase beta-1 (P23443 whole entry, the tested form may be a part): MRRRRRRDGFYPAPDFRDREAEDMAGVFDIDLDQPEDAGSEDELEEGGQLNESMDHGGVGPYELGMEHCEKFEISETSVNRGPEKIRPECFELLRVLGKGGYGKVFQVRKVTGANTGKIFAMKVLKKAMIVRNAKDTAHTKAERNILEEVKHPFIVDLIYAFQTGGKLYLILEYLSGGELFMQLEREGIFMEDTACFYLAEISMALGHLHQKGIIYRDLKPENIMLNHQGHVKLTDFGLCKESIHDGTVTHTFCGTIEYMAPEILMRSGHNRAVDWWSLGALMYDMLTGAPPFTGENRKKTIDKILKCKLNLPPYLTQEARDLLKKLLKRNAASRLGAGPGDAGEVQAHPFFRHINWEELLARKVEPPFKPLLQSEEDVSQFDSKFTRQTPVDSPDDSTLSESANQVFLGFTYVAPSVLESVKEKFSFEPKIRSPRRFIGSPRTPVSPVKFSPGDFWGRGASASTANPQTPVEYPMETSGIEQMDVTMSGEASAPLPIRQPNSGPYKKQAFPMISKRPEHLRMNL

| Structure (SMILES) | Kd [1] | Kd [2] | Kd [3] | Kd [4] | Kd [5] | Kd [6] |
| --- | --- | --- | --- | --- | --- | --- |
| Cn1ncc(Cl)c1-c1cc(C(=O)N[C@H](CN)Cc2cccc(F)c2)sc1Cl [AFURESERTIB] | > 30 µM (inactive) | > 30 µM (inactive) | > 30 µM (inactive) | > 30 µM (inactive) | > 30 µM (inactive) |  |
| COC(=O)N[C@@H](C)CNc1nccc(-c2cn(C(C)C)nc2-c2cc(Cl)cc(NS(C)(=O)=O)c2F)n1 [ENCORAFENIB] | > 30 µM (inactive) | > 30 µM (inactive) | > 30 µM (inactive) | > 30 µM (inactive) | > 30 µM (inactive) | > 30 µM (inactive) |
| Cc1cn(-c2cc(NC(=O)c3ccc(C)c(Nc4nccc(-c5cccnc5)n4)c3)cc(C(F)(F)F)c2)cn1 [NILOTINIB] | > 30 µM (inactive) |  |  |  |  |  |
| C=CC(=O)N1CCC(Oc2cc3c(Nc4ccc(Cl)c(Cl)c4F)ncnc3cc2OC)CC1 [POZIOTINIB] |  | > 30 µM (inactive) | > 30 µM (inactive) | > 30 µM (inactive) | > 30 µM (inactive) | > 30 µM (inactive) |
| O=C(Nc1cccc(Cl)c1)Nc1ncc(CCNc2ncnc3ccsc23)s1 [SNS-314] | > 30 µM (inactive) | > 30 µM (inactive) |  |  | 0.14 µM (active) | > 30 µM (inactive) |
| Cc1ccc(S(=O)(=O)Nc2nc3ccccc3nc2Nc2ccc3nsnc3c2)cc1 |  | > 30 µM (inactive) | > 30 µM (inactive) | > 30 µM (inactive) | > 30 µM (inactive) | > 30 µM (inactive) |
| CN1CCN(c2ccc3nc(-c4c(N)c5c(F)cccc5[nH]c4=O)[nH]c3c2)CC1 [DOVITINIB] | > 30 µM (inactive) | > 30 µM (inactive) |  |  |  |  |
| COc1cc2nccc(Oc3ccc(NC(=O)NC4CC4)c(Cl)c3)c2cc1C(N)=O [LENVATINIB] | > 30 µM (inactive) | > 30 µM (inactive) | > 30 µM (inactive) |  | 0.046 µM (active) | > 30 µM (inactive) |
| O=C(c1ccc(F)c(F)c1Nc1ccc(I)cc1F)N1CC(O)([C@@H]2CCCCN2)C1 [COBIMETINIB] | > 30 µM (inactive) | > 30 µM (inactive) | > 30 µM (inactive) |  | > 30 µM (inactive) | > 30 µM (inactive) |
| CNC(=O)c1cc(Oc2ccc(NC(=O)Nc3ccc(Cl)c(C(F)(F)F)c3)c(F)c2)ccn1 [REGORAFENIB] |  | > 30 µM (inactive) | > 30 µM (inactive) | > 30 µM (inactive) | 0.358 µM (active) | > 30 µM (inactive) |
| Nc1nc(N)c2nc(-c3cccc(O)c3)c(-c3cccc(O)c3)nc2n1 [TG100-115] | > 30 µM (inactive) | > 30 µM (inactive) |  |  |  |  |
| C[C@@H](c1ccc2nccn2c1)n1nnc2ncc(-c3cnn(C)c3)nc21 [SAVOLITINIB] | > 30 µM (inactive) | > 30 µM (inactive) | > 30 µM (inactive) |  | > 30 µM (inactive) | > 30 µM (inactive) |
| COCCNCc1ccc(-c2cc3nccc(Oc4ccc(NC(=S)NC(=O)Cc5ccc(F)cc5)cc4F)c3s2)nc1 [GLESATINIB] | > 30 µM (inactive) | > 30 µM (inactive) | > 30 µM (inactive) | > 30 µM (inactive) |  | > 30 µM (inactive) |

Results, then the compound that gave them:

| Kd [1] | Kd [2] | Kd [3] | Kd [4] | Kd [5] | Kd [6] | Structure (SMILES) |
| --- | --- | --- | --- | --- | --- | --- |
| > 30 µM (inactive) | > 30 µM (inactive) |  |  | > 30 µM (inactive) | > 30 µM (inactive) | Cc1nc(N)sc1-c1ccnc(Nc2ccc(N3CCOCC3)cc2)n1 [CYC-116] |
| > 30 µM (inactive) | > 30 µM (inactive) | > 30 µM (inactive) | > 30 µM (inactive) | > 30 µM (inactive) |  | CNC(=O)c1ccc(C)c(-n2c(C)cc(OCc3ccc(F)cc3F)c(Br)c2=O)c1 [PH-797804] |
| > 30 µM (inactive) | > 30 µM (inactive) |  |  | 0.755 µM (active) |  | Cc1cc(Nc2cc(N3CCN(C)CC3)nc(/C=C/c3ccccc3)n2)n[nH]1 [ENMD-2076] |
| > 30 µM (inactive) | > 30 µM (inactive) | > 30 µM (inactive) | > 30 µM (inactive) |  | > 30 µM (inactive) | COc1cc(CCc2cc(NC(=O)c3ccc(N4C[C@@H](C)N[C@@H](C)C4)cc3)n[nH]2)cc(OC)c1 [AZD-4547] |
| > 30 µM (inactive) | > 30 µM (inactive) |  |  |  |  | CCn1c(-c2nonc2N)nc2c(C#CC(C)(C)O)ncc(OC[C@H]3CCCNC3)c21 [GSK-690693] |

— ChEMBL document CHEMBL3991601, “The target landscape of clinical kinase drugs” (Science, 2017)
